In US6365591B1, “Isoxazolecarboxamide derivatives” (Recordati, S.A., Chemical and Pharmacueticals Company, priority 1999, dated 2002):

Assays:
[1] = biological target: T1, human 5-HT1A-serotoninergic receptor (Homo sapiens, UniProt P08908); assay: Radioligand binding ([3H]8-OH-DPAT) to cloned 5-HT1A receptor in HeLa cell membranes; conditions: mean Ki, read-out: Affinity for 5-HT1A receptor, Ki
T1 construct: expressed in transfected cells; host or cells: HeLa
T1 sequence (P08908 1-422): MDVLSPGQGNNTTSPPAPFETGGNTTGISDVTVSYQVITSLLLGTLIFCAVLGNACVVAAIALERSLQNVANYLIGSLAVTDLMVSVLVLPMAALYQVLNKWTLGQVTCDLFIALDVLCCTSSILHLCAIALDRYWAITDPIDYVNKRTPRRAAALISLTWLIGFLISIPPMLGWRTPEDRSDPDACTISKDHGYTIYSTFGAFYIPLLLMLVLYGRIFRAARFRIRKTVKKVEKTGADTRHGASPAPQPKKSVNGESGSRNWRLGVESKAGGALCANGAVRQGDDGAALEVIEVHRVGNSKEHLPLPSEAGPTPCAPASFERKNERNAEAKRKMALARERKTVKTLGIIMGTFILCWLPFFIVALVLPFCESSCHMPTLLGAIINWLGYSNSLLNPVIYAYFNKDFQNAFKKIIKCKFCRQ
Excerpt: Data were expressed as mean Ki.

diastolic blood pressure = assay: Diastolic blood pressure in anaesthetised dogs, i.v. administration; type: in vivo, dog
Protocol: (§1) Effects on Urethral Contractions (Induced by Noradrenaline Injection and Hypogastric-nerve Stimulation) and on Blood Pressure in Dogs After Intravenous Administration
(§2) The experiments were performed according to the method of Imagawa et al. (J. Pharmacol. Methods, 22:103-111, 1989) with substantial modifications, as follows: adult male beagle dogs, weighing 8-10 kg, were anaesthetised with pentobarbital sodium (30 mg/kg i.v. and 2 mg/kg/h i.v.), intubated and spontaneously ventilated with room air. In order to monitor systemic blood pressure (BP), a polyethylene (PE) catheter was introduced into the aortic arch through the left femoral artery. A collateral of the left femoral vein was cannulated for infusion of anaesthetic, and the right femoral vein was cannulated for administration of the compounds. […] Prostatic urethral pressure was monitored with a Mikro-tip catheter (5F) introduced into the bladder via the external urethral meatus, and withdrawn until the pressure transducer was positioned in the prostatic region of the urethra. […]
(§3) After a stabilizing period following the surgical procedure (30 minutes), in which arterial and prostatic urethral pressure were continuously monitored as basal values, i.a. administration of NA and stimulation of the hypogastric nerve were alternately made at intervals of 10 minutes. […]

[2] = biological target: T2, recombinant α1a-adrenoceptor (UniProt P35348); conditions: read-out: Affinity for recombinant α1a-adrenoceptor subtype, Ki; [3H]prazosin, membranes of transfected cells; mean Ki
T2 sequence (P35348 1-466): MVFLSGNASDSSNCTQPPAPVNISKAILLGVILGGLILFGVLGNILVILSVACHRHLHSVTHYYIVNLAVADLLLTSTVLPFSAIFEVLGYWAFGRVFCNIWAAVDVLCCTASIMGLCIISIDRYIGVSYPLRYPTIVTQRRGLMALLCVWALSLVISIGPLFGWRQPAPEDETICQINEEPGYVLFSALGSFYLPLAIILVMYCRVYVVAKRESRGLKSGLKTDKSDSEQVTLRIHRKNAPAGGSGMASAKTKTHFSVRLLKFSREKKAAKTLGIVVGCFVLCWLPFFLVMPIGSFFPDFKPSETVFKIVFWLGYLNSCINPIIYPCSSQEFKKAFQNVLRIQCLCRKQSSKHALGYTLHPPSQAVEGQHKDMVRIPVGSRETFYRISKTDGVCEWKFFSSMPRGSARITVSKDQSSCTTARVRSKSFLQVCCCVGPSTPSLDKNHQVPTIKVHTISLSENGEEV
Protocol: (§4) Determination of Affinity for Cloned α1 Adrenergic Receptors and 5-HT1A Serotoninergic Receptors by Radioligand Binding Assay
(§5) Determination of affinity for cloned subtypes of the α1-adrenoceptor was performed in membranes from cells transfected by electroporation with DNA expressing the genes encoding each α1-adrenoceptor subtype.
(§6) Non-specific binding was determined in the presence of 10 μM phentolamine. Incubation was stopped by addition of ice-cold Tris buffer and rapid filtration through 0.2%-polyethyleneimine pretreated Schleicher & Schuell GF52 filters.

[3] = biological target: T3, recombinant α1b-adrenoceptor (Homo sapiens, UniProt P35368); assay: biochemical
T3 sequence (P35368 1-520): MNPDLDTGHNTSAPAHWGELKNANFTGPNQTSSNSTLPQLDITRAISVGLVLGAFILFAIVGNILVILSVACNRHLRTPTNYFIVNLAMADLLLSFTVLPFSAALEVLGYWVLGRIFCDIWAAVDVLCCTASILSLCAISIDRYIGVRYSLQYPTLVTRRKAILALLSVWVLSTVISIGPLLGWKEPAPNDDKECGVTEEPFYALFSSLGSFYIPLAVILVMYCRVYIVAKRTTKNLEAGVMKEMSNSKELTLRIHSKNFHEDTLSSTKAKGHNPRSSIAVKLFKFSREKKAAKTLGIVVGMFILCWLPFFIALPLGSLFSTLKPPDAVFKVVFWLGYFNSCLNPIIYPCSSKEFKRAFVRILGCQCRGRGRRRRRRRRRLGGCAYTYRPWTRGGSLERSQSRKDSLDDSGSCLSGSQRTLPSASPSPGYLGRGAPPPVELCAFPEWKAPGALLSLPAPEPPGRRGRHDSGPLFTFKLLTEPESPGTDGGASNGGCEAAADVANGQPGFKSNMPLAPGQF
Protocol: as §4, §5, §6

[4] = test system: prostatic urethral pressure (noradrenaline-induced); assay: Urethral contractions induced by intraarterial noradrenaline in anaesthetised dogs, i.v. administration; type: in vivo, dog
Protocol: as §1, §2, §3

[5] = test system: prostatic urethral pressure (hypogastric-nerve stimulation); assay: Urethral contractions induced by hypogastric-nerve stimulation in anaesthetised dogs, i.v. administration; type: in vivo, dog
Protocol: as §1, §2, §3

[6] = biological target: T4, recombinant α1d-adrenoceptor (UniProt P25100); conditions: [3H]prazosin, membranes of transfected cells; mean Ki
T4 sequence (P25100 1-572): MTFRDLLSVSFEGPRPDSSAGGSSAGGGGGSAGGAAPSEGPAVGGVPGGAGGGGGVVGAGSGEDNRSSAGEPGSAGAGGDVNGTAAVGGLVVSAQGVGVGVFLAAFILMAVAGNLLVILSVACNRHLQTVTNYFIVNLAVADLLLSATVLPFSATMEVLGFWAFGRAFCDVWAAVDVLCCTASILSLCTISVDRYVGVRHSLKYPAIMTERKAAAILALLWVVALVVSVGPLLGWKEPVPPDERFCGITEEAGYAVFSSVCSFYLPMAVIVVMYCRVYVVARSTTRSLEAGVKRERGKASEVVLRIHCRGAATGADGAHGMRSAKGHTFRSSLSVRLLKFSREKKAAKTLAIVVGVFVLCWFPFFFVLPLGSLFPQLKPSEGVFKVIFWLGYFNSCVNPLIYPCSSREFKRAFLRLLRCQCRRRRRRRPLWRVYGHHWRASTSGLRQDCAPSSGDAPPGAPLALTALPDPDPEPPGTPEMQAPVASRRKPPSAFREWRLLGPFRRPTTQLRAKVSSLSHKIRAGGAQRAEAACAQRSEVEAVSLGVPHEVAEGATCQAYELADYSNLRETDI
Protocol: as §4, §5, §6

Compound: COc1ccc(Cl)cc1N1CCN(CCCNC(=O)c2c(-c3ccccc3)noc2C)CC1 [Example 1, N-{3-[4-(5-Chloro-2-methoxyphenyl)-1-piperazinyl]propyl}-5-methyl-3-phenylisoxazole-4-carboxamide]
- Ki [1]: 436 nM
- DBP ED25: dose inducing a 25% decrease in diastolic blood pressure (diastolic blood pressure): 0.3545 mg/kg
- Ki [2]: 0.77 nM
- Ki [3]: 23.6 nM

Compound: Cc1onc(-c2ccccc2)c1C(=O)NCCCN1CCN(c2cc(Cl)ccc2O)CC1 [Example 2, N-{3-[4-(5-Chloro-2-hydroxyphenyl)-1-piperazinyl]propyl}-5-methyl-3-phenylisoxazole-4-carboxamide]
- Ki [1]: 49.5 nM
- Ki [3]: 9.97 nM

Compound: Cc1onc(-c2ccccc2)c1C(=O)NCCCN1CCN(c2ccccc2OCC(F)(F)F)CC1 [Example 3, 5-Methyl-3-phenyl-N-{3-[4-[2-(2,2,2-trifluoroethoxy)phenyl]-1-piperazinyl]propyl}isoxazole-4-carboxamide]
- Ki [1]: 11.7 nM
- Ki [3]: 36.2 nM

Compound: COc1ccc(OCC(F)(F)F)cc1N1CCN(CCCNC(=O)c2c(-c3ccccc3)noc2C)CC1 [Example 4, N-{3-[4-[2-Methoxy-5-(2,2,2-trifluoroethoxy)phenyl]-1-piperazinyl]propyl}-5-methyl-3-phenylisoxazole-4-carboxamide]
- Ki [3]: 570 nM

Compound: Cc1onc(-c2ccccc2)c1C(=O)NCCCN1CCN(c2cc(F)ccc2OCC(F)(F)F)CC1 [Example 5, N-{3-[4-[5-Fluoro-2-(2,2,2-trifluoroethoxy)phenyl]-1-piperazinyl]propyl}-5-methyl-3-phenylisoxazole-4-carboxamide]
- Ki [1]: 192 nM
- Ki [2]: 0.05 nM
- Ki [3]: 11.5 nM

Compound: Cc1onc(-c2ccccc2)c1C(=O)NCCCN1CCN(c2ccc(F)cc2OCC(F)(F)F)CC1 [Example 6, N-{3-[4-[4-Fluoro-2-(2,2,2-trifluoroethoxy)phenyl]-1-piperazinyl]propyl}-5-methyl-3-phenylisoxazole-4-carboxamide]
- Ki [1]: 317 nM
- UP ID50 NA: dose inhibiting by 50% the urethral contractions induced by noradrenaline [4]: 0.0024 mg/kg
- UP ID50 HYP: dose inhibiting by 50% the urethral contractions induced by hypogastric-nerve stimulation [5]: 0.0045 mg/kg
- DBP ED25: dose inducing a 25% decrease in diastolic blood pressure (diastolic blood pressure): 0.1967 mg/kg
- Ki [2]: 0.35 nM
- Ki [3]: 69.5 nM

Compound: Cc1onc(-c2ccccc2)c1C(=O)NCCCN1CCN(c2cc(Cl)ccc2OS(=O)(=O)C(F)(F)F)CC1 [Example 7, N-{3-[4-(5-Chloro-2-trifluoromethanesulphonyloxy)-1-piperazinyl]propyl}-5-methyl-3-phenylisoxazole-4-carboxamide]
- Ki [1]: ≥ 1000 nM
- Ki [3]: 7.49 nM

Compound: O=C(NCCCN1CCN(c2ccc(F)cc2OCC(F)(F)F)CC1)c1conc1-c1ccc(F)cc1 [Example 8, 3-(4-Fluorophenyl)-N-[3-[4-[4-fluoro-2-(2,2,2-trifluoroethoxy)phenyl]-1-piperazinyl]propyl]-isoxazole-4-carboxamide]
- Ki [1]: 202 nM
- Affinity for recombinant α1d-adrenoceptor subtype, Ki [6]: 25/81
- Ki [3]: 28.1 nM

Compound: Cc1onc(-c2c(F)cccc2Cl)c1C(=O)NCCCN1CCN(c2ccc(F)cc2OCC(F)(F)F)CC1 [Example 9, 3-(2-Chloro-6-fluorophenyl)-N-[3-[4-[4-fluoro-2-(2,2,2-trifluoroethoxy)phenyl]-1-piperazinyl]-propyl]-5-methylisoxazole-4-carboxamide]
- Ki [1]: 342 nM
- Ki [3]: 24.1 nM

Compound: Cc1onc(-c2c(Cl)cccc2Cl)c1C(=O)NCCCN1CCN(c2ccc(F)cc2OCC(F)(F)F)CC1 [Example 10, 3-(2,6-Dichlorophenyl)-N-[3-[4-[4-fluoro-2-(2,2,2-trifluoroethoxy)phenyl]-1-piperazinyl]pro-pyl]-5-methylisoxazole-4-carboxamide]
- Ki [1]: 170 nM
- Ki [3]: 24.2 nM

Compound: Cc1onc(-c2ccccc2Cl)c1C(=O)NCCCN1CCN(c2ccc(F)cc2OCC(F)(F)F)CC1 [Example 11, 3-(2-Chlorophenyl)-N-[3-[4-[4-fluoro-2-(2,2,2-trifluoroethoxy)phenyl]-1-piperazinyl]propyl]-5-methylisoxazole-4-carboxamide]
- Ki [1]: 242 nM
- Ki [3]: 31.2 nM

Compound: Cc1onc(-c2c(F)cccc2Cl)c1C(=O)NCCCN1CCN(c2ccccc2OCC(F)(F)F)CC1 [Example 12, 3-(2-Chloro-6-fluorophenyl)-5-methyl-N-[3-[4-[2-(2,2,2-trifluoroethoxy)phenyl]1-piperazi-nyl]propyl]isoxazole-4-carboxamide]
- Ki [1]: 30 nM
- Ki [3]: 21.4 nM
